Laboratory results: US9604945B2, “Sydnonimines-specific dopamine reuptake inhibitors and their use in treating dopamine related disorders” (priority 2007, dated 2017)

Columns and labels:
[1] = Brain drug concentration by different routes of administration; assay type: in vivo, C57BL/6 mice; conditions: for Brain Drug Concentration: time 0 (pre-dose); for concentration at 5 min / concentration at 15 min / concentration at 30 min / concentration at 60 min / concentration at 120 min / concentration at 240 min / concentration at 480 min: C57BL/6, mouse, brain
Procedure: The following materials and methods are provided to facilitate the practice of Example 9, in which drug concentration in certain biological samples were assessed using different routes of administration.
Parameters Used in Dosing and Drug Administration of the Compound of Example 3:
Adult C57BL/6 mice (preferred 16 weeks old).
Three mice per time point. If all three routes are conducted in same day, one group of pre-dose is efficient.
In the studies using adult C57BL/6 mice (preferably approximately 16 weeks old), dosing and drug administration parameters for the compound of Example 3 were explored. Clearly, the compound is suitable for oral administration and lasts in the plasma up to 2-3 hours.

male Swiss Webster mice = assay: Spontaneous locomotor activity dose response study (NIDA MDD protocol); assay type: in vivo, mouse; conditions: 3, 10, 30 or 100 mg/kg IP, FIGS. 4 and 5
Procedure: A dose response study was conducted of locomotor depression induced by the compound of Example 3, according to NIDA's Medication Development Division (MDD) locomoter activity studies standard protocol. The study was conducted using 40 Digiscan locomotor activity testing chambers (40.5×40.5×30.5 cm) housed in sets of two, within sound attenuating chambers. A panel of infrared beams (16 beams) and corresponding photodetectors were located in the horizontal direction along the sides of each activity chamber. A 7.5 W incandescent light above each chamber provided dim illumination. Fans provided an 80 dB ambient noise level within the chamber. Separate groups of 8 non-habituated male Swiss Webster mice (Hsd:ND4, aged 2-3 months) were injected via the intraperitoneal (IP) route with either vehicle (2% methyl cellulose) or the compound of Example 3, above, (3, 10, 30 or 100 mg/kg) twenty minutes prior to locomotor activity testing. Just piro to placement in the apparatus, all mice received a saline injection IP. In all studies, horizontal activity (interruption of photocell beams) was measured for 1 hour within 10 minute periods. Testing was conducted with one mouse per activity chamber.
The same protocol was followed in a study of locomotor depression induced by the compound of Example 6. […]

male mice = assay: Novel environment-induced feeding suppression (NEIFS); assay type: in vivo, mouse; conditions: 10 and 90 mg/kg, FIG. 10
Procedure: Novel environment-induced feeding suppression (NEIFS) testing was also performed. Individually housed male mice aged 8-12 weeks are used for this testing. Mice were maintained no a reverse L:D/12 p.m.:12 a.m. cycle in a barrier facility with food and water available ad libitum. Testing occurred towards the end of the light cycle between 6-12 a.m. The mice were acclimated to the testing room for at least 30 minutes.
Days 1, 2, 3 and 5 (Home cage): A Petri dish containing crushed Graham crackers was placed in the farthest corner from each mouse in its own home cage. The time to approach (defined as nose of the mouse directed at or within 1 cm of the dish) and consume (eat, not pick up) the crackers was recorded immediately following the placement of the dish into home cage.
Day 4 (Novel environment): The procedure followed was the same as described for home cage; however, on day 4 the mouse was placed in a new cage with bedding (novel environment) for the duration of the experiment. The mice were subsequently returned to their respective home cages for day 5 testing. The remaining crackers and Petri dish were disposed of at the end of the experiment for each mouse.

With Cc1ccc(C[n+]2[cH-]/c(=N\C(=O)Nc3ccccc3)on2)cc1 [Example 3, N-phenylcarbamoyl-3-(p-methyl-benzyl)-sydnonimine] the “Brain Drug Concentration” value ([1]; 10 mg/kg (IP)) was 0.00 ng/mL, the “Brain Drug Concentration” value ([1]; 10 mg/kg (IV)) was 95.10 ng/mL and the “Brain Drug Concentration” value ([1]; 10 mg/kg (PO)) was 107.55 ng/mL. The “Brain Drug Concentration” value ([1]; 30 mg/kg (PO)) was 123.97 ng/mL, the concentration at 5 min ([1]; intraperitoneal, 10 mg/kg (IP)) was 1460 ng/mL and the concentration at 15 min ([1]; intraperitoneal, 10 mg/kg (IP)) was 374 ng/mL. For the same compound, the concentration at 30 min ([1]; intraperitoneal, 10 mg/kg (IP)) was 242 ng/mL, the concentration at 60 min ([1]; intraperitoneal, 10 mg/kg (IP)) was 190 ng/mL and the concentration at 120 min ([1]; intraperitoneal, 10 mg/kg (IP)) was 70.2 ng/mL. The concentration at 240 min ([1]; intraperitoneal, 10 mg/kg (IP)) was 143 ng/mL, the concentration at 480 min ([1]; intraperitoneal, 10 mg/kg (IP)) was 123 ng/mL and the concentration at 5 min ([1]; 10 mg/kg (IV)) was 2310 ng/mL. It also gave a concentration at 15 min ([1]; 10 mg/kg (IV)) of 1720 ng/mL, a concentration at 30 min ([1]; 10 mg/kg (IV)) of 1140 ng/mL and a concentration at 60 min ([1]; 10 mg/kg (IV)) of 464 ng/mL. For the same compound, the concentration at 120 min ([1]; 10 mg/kg (IV)) was 78.7 ng/mL, the concentration at 240 min ([1]; 10 mg/kg (IV)) was 178 ng/mL and the concentration at 480 min ([1]; 10 mg/kg (IV)) was 49 ng/mL. It also gave a concentration at 5 min ([1]; 10 mg/kg (PO)) of 418 ng/mL, a concentration at 15 min ([1]; 10 mg/kg (PO)) of 298 ng/mL and a concentration at 30 min ([1]; 10 mg/kg (PO)) of 150 ng/mL. For the same compound, the concentration at 60 min ([1]; 10 mg/kg (PO)) was 158 ng/mL, the concentration at 120 min ([1]; 10 mg/kg (PO)) was 165 ng/mL and the concentration at 240 min ([1]; 10 mg/kg (PO)) was 97.5 ng/mL. It also gave a concentration at 480 min ([1]; 10 mg/kg (PO)) of 163 ng/mL, a concentration at 5 min ([1]; 30 mg/kg (PO)) of 869 ng/mL and a concentration at 15 min ([1]; 30 mg/kg (PO)) of 845 ng/mL. The concentration at 30 min ([1]; 30 mg/kg (PO)) was 627 ng/mL, the concentration at 60 min ([1]; 30 mg/kg (PO)) was 218 ng/mL and the concentration at 120 min ([1]; 30 mg/kg (PO)) was 203 ng/mL. The concentration at 240 min ([1]; 30 mg/kg (PO)) was 183 ng/mL, the concentration at 480 min ([1]; 30 mg/kg (PO)) was 168 ng/mL and the Brain penetration ([1]; administered orally or via intravenous administration) was “reaches the brain”. For the same compound, the “Effect on spontaneous locomotor activity” value (male Swiss Webster mice) was “dose dependent suppression of spontaneous locomotor activity” and the “Anxiolytic effect in novel environment induced feeding suppression” value (male mice) was “induced measurable anxiolytic effects”.
